In one test the test system is S. aureus 68. Description: MIC, clinical isolates of wound-associated pathogens. It is filed as cell-based. The conditions noted are these: Staphylococcus aureus; triclosan in the presence of DispersinB 40 μg/ml; clinical isolate S. aureus 68. How it is done: (§1) The combined antimicrobial activity of DispersinB™ and triclosan was studied by determining minimal inhibitory concentrations (MIC) in a 96 well microtiter plate. Briefly, serial two-fold dilutions of triclosan and in presence of DispersinB™ (40 μg/ml) were performed in TSB. A suspension of each microorganism from Table 1 was added to wells at a concentration of 5×10^5 CFU/mL, and the microtiter plates were incubated at 37° C. The MIC was defined, as the lowest concentration of an antimicrobial required for total inhibition of a test microorganism at 37° C. Triclosan in combination with DispersinB™ was active against all the pathogens tested.
(§2) The antimicrobial activity of DispersinB™ and triclosan combination was studied by determining the minimal inhibitory concentrations (MIC) in 96 well microtiter plates as described in Example 4. Triclosan in combination with DispersinB™ was active against all the pathogens tested (Table 2).

Test [1] concerns Coagulase-negative staphylococci (CNS 11). The description is as above. Format: cell-based. Conditions: triclosan in the presence of DispersinB 40 μg/ml; clinical isolate CNS 11. How it is done:
as §1, §2

The next test deals with S. aureus 120. The test is described as above. Format: cell-based. The conditions noted are these: Staphylococcus aureus; triclosan in the presence of DispersinB 40 μg/ml; clinical isolate S. aureus 120. Here is the method:
as §1, §2

Another test concerns S. aureus Gav 16A. The test is described as above. Format: cell-based. The conditions noted are these: Staphylococcus aureus, GAV16A; triclosan in the presence of DispersinB 40 μg/ml; clinical isolate S. aureus Gav 16A. Here is the method: as §1, §2
The subject of test [2] is S. epidermidis. The test can be described thus: Adhesion assay with coated silicone catheter segments. Format: cell-based, Staphylococcus epidermidis. Conditions: silicone catheter coated with TCSN 10 mg/ml alone versus DispersinB 40 μg/ml alone. Here is the method:
(§3) The adhesion assay was performed to determine the synergistic effect of DispersinB™ and TCSN combination coated silicone catheters on S. epidermidis and E. coli colonization. The silicone catheter segments (1 cm each) were coated by dipping in DispersinB™ (40 μg/ml) and TCSN (10 mg/ml in 10% Polyethylene glycol) alone and in combination for overnight at 4° C. followed by drying at room temperature. The coated and uncoated segments were incubated in S. epidermidis and E. coli culture in TSB medium at 37° C. for 24 hours at 100 rpm. After 24 hours of incubation, the sections were washed three times gently. Each washed section was transferred into a sterile tube containing 1 ml sterile saline and subjected to sonication for 30 seconds and followed by 1 minute vortexing. Further, it was serially diluted using sterile saline and plated using Tryptic Soy Agar (TSA) plates. The plates were incubated at 37° C. for 24 hours and the colonies (CFU) were counted.

In a further test the test system is CNS 42. The test can be described thus: MIC, clinical isolates of wound-associated pathogens. It is filed as cell-based, Coagulase-negative staphylococci. Conditions: triclosan in the presence of DispersinB 40 μg/ml; clinical isolate CNS 42. How it is done:
as §1, §2

A further test relates to CNS 82. Described as above. It is filed as cell-based, Coagulase-negative staphylococci. The conditions noted are these: triclosan in the presence of DispersinB 40 μg/ml; clinical isolate CNS 82. How it is done: as §1, §2
For another test, the system named is S. aureus. The test can be described thus: MIC in 96 well microtiter plate. It is filed as cell-based. The conditions noted are these: Staphylococcus aureus, triclosan in the presence of DispersinB 40 μg/ml, 37° C. How it is done: as §1
The subject of the next test is E. faecium. Description: MIC in 96 well microtiter plate. It is filed as cell-based. Conditions: Enterococcus faecium, triclosan in the presence of DispersinB 40 μg/ml, 37° C. Here is the method: as §1
In a further test the test system is K. pneumoniae. The test can be described thus: MIC in 96 well microtiter plate. It is filed as cell-based. Conditions: Klebsiella pneumoniae, triclosan in the presence of DispersinB 40 μg/ml, 37° C. How it is done: as §1
For test [3], the system named is E. coli. The test can be described thus: MIC in 96 well microtiter plate. Conditions: Escherichia coli, triclosan in the presence of DispersinB 40 μg/ml, 37° C. It is filed as cell-based. How it is done:
as §1

In another test the test system is C. albicans. Description: MIC in 96 well microtiter plate. Format: cell-based. Conditions: Candida albicans, triclosan in the presence of DispersinB 40 μg/ml, 37° C. How it is done: as §1
In test [4] the test system is S. epidermidis. Description: MIC in 96 well microtiter plate. The conditions noted are these: Staphylococcus epidermidis, triclosan in the presence of DispersinB 40 μg/ml, 37° C. Format: cell-based. How it is done:
as §1

For another test, the system named is P. mirabilis. The test can be described thus: MIC in 96 well microtiter plate. It is filed as cell-based. Conditions: Proteus mirabilis, triclosan in the presence of DispersinB 40 μg/ml, 37° C. How it is done:
as §1

Another test relates to Enterobacter cloacae. Description: MIC in 96 well microtiter plate. It is filed as cell-based. Conditions: triclosan in the presence of DispersinB 40 μg/ml, 37° C. Here is the method: as §1
The next test concerns E. faecalis. Description: MIC in 96 well microtiter plate. It is filed as cell-based. Conditions: Enterococcus faecalis, triclosan in the presence of DispersinB 40 μg/ml, 37° C. Here is the method: as §1
Test [5] relates to E. coli. The test can be described thus: Adhesion assay with coated silicone catheter segments. Conditions: silicone catheter coated with TCSN 10 mg/ml alone versus DispersinB 40 μg/ml alone. Format: cell-based, Escherichia coli. How it is done: as §3

For the molecule `Oc1cc(Cl)ccc1Oc1ccc(Cl)cc1Cl` [triclosan], the minimal inhibitory concentration (MIC) is under 0.39 µg/mL in the test on S. aureus 68; 25 µg/mL in [1]; under 0.39 µg/mL with S. aureus 120; under 0.39 µg/mL with S. aureus Gav 16A; 0.625 µg/mL in the test on CNS 42; under 0.39 µg/mL with CNS 82. Besides, the MIC is under 0.097 µg/mL with S. aureus; 12.5 µg/mL with E. faecium; 25 µg/mL with K. pneumoniae; 6.25 µg/mL with E. coli [3]; 100 µg/mL in the test on C. albicans; 3.12 µg/mL with S. epidermidis [4]. The MIC stood at 12.5 µg/mL in the test on P. mirabilis, 25 µg/mL in the test on Enterobacter cloacae and 100 µg/mL in the test on E. faecalis. Also, in the test on S. epidermidis [2], the “inhibiting the growth of biofilm-embedded S. epidermidis, coating alone” value is listed as “more effective than DispersinB™”. Also, the “inhibiting the growth of biofilm-embedded E. coli, coating alone” value in the test on E. coli [5] is recorded as “more effective than DispersinB™”.

(Values after US8821862B2, “Soluble β-N-acetylglucosaminidase based antibiofilm compositions and uses thereof” (Kane Biotech Inc., priority 2002, dated 2014).)
